Values of other authors in patent US7037523B2, “Controlled release compositions for macrolide antimicrobial agents” (Wockhardt Limited, priority 2001, dated 2006).

How the values were obtained:
[1] = normal gastric pH of 1.0–2.0

- solubility in water: practically insoluble
- degradation in acidic medium [1]: degrades rapidly
Structure (SMILES): CC[C@H]1OC(=O)[C@H](C)[C@@H](O[C@H]2C[C@@](C)(OC)[C@@H](O)[C@H](C)O2)[C@H](C)[C@@H](O[C@@H]2O[C@H](C)C[C@H](N(C)C)[C@H]2O)[C@](C)(OC)C[C@@H](C)C(=O)[C@H](C)[C@@H](O)[C@]1(C)O [Clarithromycin]
